Source: US20250197359A1, “CANNABINOID RECEPTOR MODULATING COMPOUNDS” (The U.S.A., as Represented by the Secretary, Department of …, priority 2022, published 2025)
pIC50, pKi: −log10 of the molar value. Read-outs that look alike come from different tables or passages of the source.

How the values were obtained:
[1] = molecular target: T1, Brain/CB1 (Mus musculus, UniProt P47746); assay: Functional GTPγS binding, Brain/CB1; assay type: biochemical
T1 construct: from tissue; host or cells: mouse brain membranes
T1 sequence (P47746 whole entry): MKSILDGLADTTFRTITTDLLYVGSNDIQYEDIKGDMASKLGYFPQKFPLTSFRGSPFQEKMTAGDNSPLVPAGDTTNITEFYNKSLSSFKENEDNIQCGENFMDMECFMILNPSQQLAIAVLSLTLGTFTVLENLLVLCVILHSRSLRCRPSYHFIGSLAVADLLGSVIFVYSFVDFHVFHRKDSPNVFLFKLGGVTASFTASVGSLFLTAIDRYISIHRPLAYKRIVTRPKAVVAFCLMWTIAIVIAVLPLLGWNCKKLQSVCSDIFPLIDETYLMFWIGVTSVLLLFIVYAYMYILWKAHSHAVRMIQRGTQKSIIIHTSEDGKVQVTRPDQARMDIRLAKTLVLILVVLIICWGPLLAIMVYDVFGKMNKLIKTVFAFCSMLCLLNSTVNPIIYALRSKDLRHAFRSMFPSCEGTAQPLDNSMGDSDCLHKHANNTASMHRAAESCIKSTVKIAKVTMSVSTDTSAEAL
From the text: Furthermore, the intermediates urea compounds 8a-m were chlorinated with phosphorus oxychloride in the presence of DIPEA base to form imidoyl chloride intermediate and reacted with acetamidine hydrochloride/methyl carbamimidothioate iodide/methyl carbamimidoselenoate iodide and other amines to furnish the target compounds (10a-34b) (Scheme 2, FIG. 2, Scheme 5, FIG. 5). The urea derivatives were converted to the thiourea derivatives 9a-9d by employing sodium thiosulfate. Compound 8a-b, 8e-f were converted to corresponding thiourea by employing sodium thiosulfate dissolved in water dioxane mixture and the reaction was heated to 85° C. for 2 h. […] The binding constant for the synthesized compounds were determined by using radioligand binding assay in mouse brain membranes as well as the target compounds were evaluated in vitro at the human CB1 receptor, stably expressed into Chinese hamster ovary (CHO) cells as well as mouse brain membrane CB1.

[2] = molecular target: CB1 (UniProt P21554); assay: CB1 radioligand binding assay; design: species or system human; details: for pKi: read-out: Ki (CB1)
Method: The target compounds were evaluated in vitro at the human CB1 receptor, stably expressed into Chinese hamster ovary (CHO) cells by utilizing radioligand binding studies.
The binding constant for the synthesized compounds were determined by using radioligand binding assay in mouse brain membranes as well as the target compounds were evaluated in vitro at the human CB1 receptor, stably expressed into Chinese hamster ovary (CHO) cells as well as mouse brain membrane CB1. […]

pKi [2] | Compound | also measured
6.11 | CCC(N/C(=N/S(=O)(=O)c1ccc(C(F)(F)F)cc1)N1CCC(c2ccccc2)C(c2ccc(Cl)cc2)=N1)C(N)=O (single isomer, unassigned) [Compound 32a, (Z)-2-(3-(4-chlorophenyl)-4-phenyl-N′-((4-(trifluoromethyl)phenyl)sulfonyl)-1,4,5,6-tetrahydropyridazine-1-carboximidamido) butanamide] | 
6.92 | C/C(N)=N/C(=N/S(=O)(=O)c1ccc(C(F)(F)F)cc1)N1CCC(c2ccccc2)C(c2ccc(F)cc2)=N1 (stereo not shown) [Compound 10zc, (Z)—N—((Z)-1-aminoethylidene)-3-(4-fluorophenyl)-4-phenyl-N′-((4-(trifluoromethyl)phenyl)sulfonyl)-5,6-dihydropyridazine-1 (4H)-carboximidamide] | 
8.30 | CC(=O)N/C(N)=N\C(=N\S(=O)(=O)c1ccc(C(F)(F)F)cc1)N1CCC(c2ccccc2)C(c2ccc(Cl)cc2)=N1 (stereo not shown) [Compound 14, N—((Z)—N′—((Z)-(3-(4-chlorophenyl)-4-phenyl-5,6-dihydropyridazin-1 (4H)-yl)(((4-(trifluoromethyl)phenyl)sulfonyl)imino)methyl)carbamimidoyl) acetamide] | 
6.27 | CCN(CC)/C(N)=N/C(=N/S(=O)(=O)c1ccc(C(F)(F)F)cc1)N1CCC(c2ccccc2)C(c2ccc(Cl)cc2)=N1 (stereo not shown) [Compound 18, (Z)—N—((E)-amino (diethylamino)methylene)-3-(4-chlorophenyl)-4-phenyl-N′-((4-(trifluoromethyl)phenyl)sulfonyl)-5,6-dihydropyridazine-1 (4H)-carboximidamide] | 
6.42 | CC(C)(C)OC(=O)N/C(N)=N\C(=N\S(=O)(=O)c1ccc(C(F)(F)F)cc1)N1CCC(c2ccccc2)C(c2ccc(Cl)cc2)=N1 (stereo not shown) [Compound 19] | 
6.24 | O=C(O)CCCN/C(=N/S(=O)(=O)c1ccc(C(F)(F)F)cc1)N1CCC(c2ccccc2)C(c2ccc(Cl)cc2)=N1 (stereo not shown) [Compound 21, (Z)-4-(3-(4-chlorophenyl)-4-phenyl-N′-((4-(trifluoromethyl)phenyl)sulfonyl)-1,4,5,6-tetrahydropyridazine-1-carboximidamido) butanoic acid] | 
6.24 | NC(=S)NN/C(=N/S(=O)(=O)c1ccc(C(F)(F)F)cc1)N1CCC(c2ccccc2)C(c2ccc(Cl)cc2)=N1 (stereo not shown) [Compound 22, (Z)-2-((3-(4-chlorophenyl)-4-phenyl-5,6-dihydropyridazin-1 (4H)-yl)(((4-(trifluoromethyl)phenyl)sulfonyl)imino)methyl) hydrazine-1-carbothioamide] | 

More lines, now with the values behind:

Compound | pKi [2] | also measured
C/C(N)=N\C(=N\S(=O)(=O)c1ccc(C(F)(F)F)cc1)N1CCC(c2ccccc2)C(c2ccc(Cl)cc2)=N1 (single isomer, unassigned) [Compound 10bE1, (Z)—N—((E)-1-aminoethylidene)-3-(4-chlorophenyl)-4-phenyl-N′-((4-(trifluoromethyl)phenyl)sulfonyl)-5,6-dihydropyridazine-1 (4H)-carboximidamide] |  | pIC50 [1]: < 6.00
CS/C(N)=N\C(=N\S(=O)(=O)c1ccc(Cl)cc1)N1CCC(c2ccccc2)C(c2ccc(Cl)cc2)=N1 (stereo not shown) [Compound 11a, methyl (Z)—N′—((Z)-(3-(4-chlorophenyl)-4-phenyl-5,6-dihydropyridazin-1 (4H)-yl)(((4-chlorophenyl)sulfonyl)imino)methyl)carbamimidothioate] | 6.68 | 
CS/C(N)=N\C(=N\S(=O)(=O)c1cccc(C(F)(F)F)c1)N1CCC(c2ccccc2)C(c2ccc(Cl)cc2)=N1 (stereo not shown) [Compound 11c, methyl (Z)—N′—((Z)-(3-(4-chlorophenyl)-4-phenyl-5,6-dihydropyridazin-1 (4H)-yl)(((3-(trifluoromethyl)phenyl)sulfonyl)imino)methyl)carbamimidothioate] | 6.63 | 
CS/C(N)=N\C(=N\S(=O)(=O)c1ccc(OC(F)(F)F)cc1)N1CCC(c2ccccc2)C(c2ccc(Cl)cc2)=N1 (stereo not shown) [Compound 11d, methyl (Z)—N′—((Z)-(3-(4-chlorophenyl)-4-phenyl-5,6-dihydropyridazin-1 (4H)-yl)(((4-(trifluoromethoxy)phenyl)sulfonyl)imino)methyl)carbamimidothioate] | 6.82 | 
CS/C(N)=N\C(=N\S(=O)(=O)c1ccc(C#N)cc1)N1CCC(c2ccccc2)C(c2ccc(Cl)cc2)=N1 (stereo not shown) [Compound 11e, methyl (Z)—N′—((Z)-(3-(4-chlorophenyl)-4-phenyl-5,6-dihydropyridazin-1 (4H)-yl)(((4-cyanophenyl)sulfonyl)imino)methyl)carbamimidothioate] | 6.86 | 
CS/C(N)=N\C(=N\S(=O)(=O)c1ccc2ccccc2c1)N1CCC(c2ccccc2)C(c2ccc(Cl)cc2)=N1 (stereo not shown) [Compound 11f, methyl (Z)—N′—((Z)-(3-(4-chlorophenyl)-4-phenyl-5,6-dihydropyridazin-1 (4H)-yl)((naphthalen-2-ylsulfonyl)imino)methyl)carbamimidothioate] | 6.23 | 
CS/C(N)=N\C(=N\S(=O)(=O)c1ccccc1)N1CCC(c2ccccc2)C(c2ccc(Cl)cc2)=N1 (stereo not shown) [Compound 11g, methyl (Z)—N′—((Z)-(3-(4-chlorophenyl)-4-phenyl-5,6-dihydropyridazin-1 (4H)-yl)((phenylsulfonyl)imino)methyl)carbamimidothioate] | 5.80 | 
COc1ccc(S(=O)(=O)/N=C(/N=C(/N)SC)N2CCC(c3ccccc3)C(c3ccc(Cl)cc3)=N2)cc1 (stereo not shown) [Compound 11h, methyl (Z)—N′—((Z)-(3-(4-chlorophenyl)-4-phenyl-5,6-dihydropyridazin-1 (4H)-yl)(((4-methoxyphenyl)sulfonyl)imino)methyl)carbamimidothioate] | 5.97 | 
C[Se]/C(N)=N\C(=N\S(=O)(=O)c1ccc(Cl)cc1)N1CCC(c2ccccc2)C(c2ccc(Cl)cc2)=N1 (stereo not shown) [Compound 12a, methyl (Z)—N′—((Z)-(3-(4-chlorophenyl)-4-phenyl-5,6-dihydropyridazin-1 (4H)-yl)(((4-chlorophenyl)sulfonyl)imino)methyl)carbamimidoselenoate] |  | Ki ([2]; read-out: Ki (CB1) in nM): 45 nM
C[Se]/C(N)=N\C(=N\S(=O)(=O)c1ccc(OC(F)(F)F)cc1)N1CCC(c2ccccc2)C(c2ccc(Cl)cc2)=N1 (stereo not shown) [Compound 12d, methyl (Z)—N′—((Z)-(3-(4-chlorophenyl)-4-phenyl-5,6-dihydropyridazin-1 (4H)-yl)(((4-(trifluoromethoxy)phenyl)sulfonyl)imino)methyl)carbamimidoselenoate] | 6.71 | 
C[Se]/C(N)=N\C(=N\S(=O)(=O)c1ccc(C#N)cc1)N1CCC(c2ccccc2)C(c2ccc(Cl)cc2)=N1 (stereo not shown) [Compound 12e, methyl (Z)—N′—((Z)-(3-(4-chlorophenyl)-4-phenyl-5,6-dihydropyridazin-1 (4H)-yl)(((4-cyanophenyl)sulfonyl)imino)methyl)carbamimidoselenoate] | 6.75 | 
C[Se]/C(N)=N\C(=N\S(=O)(=O)c1ccc2ccccc2c1)N1CCC(c2ccccc2)C(c2ccc(Cl)cc2)=N1 (stereo not shown) [Compound 12f, methyl (Z)—N′—((Z)-(3-(4-chlorophenyl)-4-phenyl-5,6-dihydropyridazin-1 (4H)-yl)((naphthalen-2-ylsulfonyl)imino)methyl)carbamimidoselenoate] | 6.50 | 
C[Se]/C(N)=N\C(=N\S(=O)(=O)c1ccccc1)N1CCC(c2ccccc2)C(c2ccc(Cl)cc2)=N1 (stereo not shown) [Compound 12g, methyl (Z)—N′—((Z)-(3-(4-chlorophenyl)-4-phenyl-5,6-dihydropyridazin-1 (4H)-yl)((phenylsulfonyl)imino)methyl)carbamimidoselenoate] | 5.55 | 
COc1ccc(S(=O)(=O)/N=C(/N=C(/N)[Se]C)N2CCC(c3ccccc3)C(c3ccc(Cl)cc3)=N2)cc1 (stereo not shown) [Compound 12h, methyl (Z)—N′—((Z)-(3-(4-chlorophenyl)-4-phenyl-5,6-dihydropyridazin-1 (4H)-yl)(((4-methoxyphenyl)sulfonyl)imino)methyl)carbamimidoselenoate] | 5.96 | 
C[Se]/C(N)=N/C(=N/S(=O)(=O)c1ccc(C(F)(F)F)cc1)N1CCC(c2ccccc2)C(c2ccc(F)cc2)=N1 (stereo not shown) [Compound 12i, methyl (E)-N′—((Z)-(3-(4-fluorophenyl)-4-phenyl-5,6-dihydropyridazin-1 (4H)-yl)(((4-(trifluoromethyl)phenyl)sulfonyl)imino)methyl)carbamimidoselenoate] | 6.96 | 
CC(=O)N/C(N)=N\C(=N\S(=O)(=O)c1ccc(C#N)cc1)N1CCC(c2ccccc2)C(c2ccc(Cl)cc2)=N1 (stereo not shown) [Compound 13a, N—((Z)—N′—((Z)-(3-(4-chlorophenyl)-4-phenyl-5,6-dihydropyridazin-1 (4H)-yl)(((4-cyanophenyl)sulfonyl)imino)methyl)carbamimidoyl) acetamide] | 7.61 | 
O=S(=O)(/N=C(\N=C1/CCCN1)N1CCC(c2ccccc2)C(c2ccc(Cl)cc2)=N1)c1ccc(C(F)(F)F)cc1 (stereo not shown) [Compound 17, (E)-3-(4-chlorophenyl)-4-phenyl-N—((E)-pyrrolidin-2-ylidene)-N′-((4-(trifluoromethyl)phenyl)sulfonyl)-5,6-dihydropyridazine-1 (4H)-carboximidamide] | 6.93 | 
O=S(=O)(/N=C(\NC12CC3CC(CC(C3)C1)C2)N1CCC(c2ccccc2)C(c2ccc(Cl)cc2)=N1)c1ccc(C(F)(F)F)cc1 (stereo not shown) [Compound 20, (E)-N-((3s,5s,7s)-adamantan-1-yl)-3-(4-chlorophenyl)-4-phenyl-N′-((4-(trifluoromethyl)phenyl)sulfonyl)-5,6-dihydropyridazine-1 (4H)-carboximidamide] | 7.09 | 
